{
  "source": "patent US9937136B2",
  "about": "“Methods for treating radiation induced gastrointestinal tract injury” (RDD PHARMA LTD., priority 2013, dated 2018)",
  "tested_on": "radiation induced gastrointestinal tract injury",
  "assay": "Radiation-induced gastrointestinal tract injury in mice, mucosal alteration histological scoring",
  "format": "in vivo, male C57BL/6 mice",
  "conditions": "enemas 75 mg/kg body weight for 9 days from day of irradiation; Cs-137 12 Gy to pelvic area; versus saline enemas",
  "procedure": "Fourteen male C57BL/6 mice were treated with enemas containing either 75 mg/kg body weight of Mesna or saline as a control for 9 days post-exposure to Cs-137 radiation (12 Gy) in the pelvic area. Radiation Injury Histological Scoring (0=no change, 3=severe change) was employed to assess treatment efficacy. The present invention is based in part on the unexpected finding that the rectal administration of Mesna to mice experiencing radiation induced gastrointestinal tract injury, reduces symptoms of the condition. In the present study, 14 male C57BL/6 mice were randomly divided into two groups—treatment group and control group. The pelvic area (containing the ano-rectal part of the intestine) of each mouse was exposed to a Cs-137 source and irradiated over 2 minutes at a rate of 6 Gy/min (a 12 Gy dose). Starting from the day of irradiation and for a period of 9 days, mice in the treatment group received enemas containing Mesna at a dose of 75 mg/kg body weight. Animals in the control group received saline enemas as a control. Animals were sacrificed nine days post irradiation and gross necropsy of the anus, rectum and colon was performed and documented by high resolution color pictures. […]",
  "data": [
    {"molecule": "O=S(=O)([O-])CCS.[Na+]", "note": "[Mesna, sodium 2-sulfanylethanesulfonate]", "values": [
      {"measurement": "mucosal alteration score (0=no change, 3=severe change)", "value": "significantly reduced"}
    ]}
  ]
}
